From patent US6559158B1, “Use of methylnaltrexone and related compounds to treat chronic opioid use side affects” (UR Labs, Inc., priority 1997, dated 2003)
“Also recorded” adds a separate entry of the source.

Columns and labels:
[1] = test system: chronic methadone subjects; assay: Example 1: oral-cecal transit time (lactulose hydrogen breath test); assay type: in vivo, human; conditions: 150 min after placebo
Experimental: (§1) Vital signs were obtained at 0, 5, 10, 30, 60, 90 and 120 min after each test drug administration. For oral-cecal transit time measurement, 10 g lactulose (Solvay Pharmaceuticals, Marietta, Ga.) was administered orally at 09:00 h of Day 1, Day 5 and Day 8 for Subject 1; of Day 1 for Subject 2, and of Day 1, Day 3 and Day 5 for Subjects 3 and 4. Illicit drug use was monitored by random urine drug screens.
(§2) The oral-cecal transit time was assessed by the pulmonary hydrogen (H2) measurement technique, which measures pulmonary H2 that is produced when unabsorbed lactulose is fermented by colonic bacteria and excreted in the breath. This H2 production is reflected by a concomitant increase in breath H2 excretion. […] Dis. Sci., 32:829-832 (1987)). Hydrogen breath tests were conducted every 15 min until oral-cecal transit time was determined.

[2] = test system: chronic methadone subjects with methadone-induced constipation; assay: Example 2: double-blind placebo-controlled trial of intravenous methylnaltrexone, laxation response; conditions: for methylnaltrexone dose received (infusion stopped at bowel movement): mean±SD, range 0.01-0.37
[3] = test system: chronic methadone subjects; assay: Example 2: side effects, vital signs and opioid withdrawal; assay type: in vivo, human
Experimental: Vital signs were obtained at 0, 5, 10, 30, 60, 90 and 120 min after each test drug administration. Illicit drug use was monitored by random urine drug screens.
To evaluate possible opioid withdrawal with methylnaltrexone, before and 10 min after the completion of test drug administration, subjects were asked to complete an objective checklist of withdrawal symptoms modified from Fraser et al. (J. Pharmacol Exp. Ther., 133:371-387 (1961)) and Jasinski (Drug Addiction J., 197-258 (1977)). Items rated (none, mild, moderate, severe) were yawning, lacrimation (excessive tearing), rhinorrhea (nasal discharge), perspiration, tremor, piloerection (goosebumps), and restlessness. The ratings for individual items were translated to a 0-3 scale and summed to give a total symptom score. The total scores before and after test drug administrations were compared between the groups. Potential opioid withdrawal symptoms were also monitored by an investigator throughout the study.

[4] = intravenous; cited from earlier work
[5] = Absorption after oral administration of non-enteric coated compound; assay type: in vivo
Experimental: Methylnaltrexone is rapidly absorbed after oral administration from the stomach and bowel. Initial plasma levels of the drug are seen within 5-10 minutes of the administration of non-enteric coated compound. Addition of an enteric coating which prevents gastric absorption is associated with lower plasma levels of the methylnaltrexone.

[6] = test system: normal volunteers; assay: FIG. 5: oral-cecal transit time of normal volunteers given MNTX; assay type: in vivo, human; conditions: normal subjects, doses 2.1 mg/kg to 6.4 mg/kg (FIG. 5)
Experimental: FIG. 5 is a comparison of oral-cecal transit times of normal volunteers and methadone maintenance subjects showing the increased responsiveness of chronic opioid patients to MNTX. At doses ranging from 2.1 mg/kg to 6.4 mg/kg, normal subjects experienced about a 15-20% reduction in oral-cecal transit time, while at a dose of 3.0 mg/kg, methadone subjects experienced a greater than 35% reduction in oral-cecal transit time.

[7] = Example 2: plasma levels and urinary excretion of methylnaltrexone; assay type: in vivo, human; conditions: for Peak plasma level: iv, mean±SD
Experimental: (§3) After each test drug administration, seven blood samples (5 ml each) were obtained at time 0, 5, 30 min, and 1, 2, 4, 8 h, and three urine samples were collected at time 0, 2, and 4 h. Plasma and urine methylnaltrexone levels were determined by an HPLC technique with a detection limit of 2 ng/ml (Kim et al., 1989; Yuan et al., Clin. Pharmacol Ther., 59:469-475 (1996); both herein incorporated by reference). […] Subjects' bowel movements were witnessed and recorded by a research nurse.
Blood and Urine Sampling and Analysis were Performed as in Example 1.

[8] = test system: chronic methadone subjects; assay: Example 2: oral-cecal transit time (lactulose hydrogen breath test); assay type: in vivo, human
Experimental: as §2
The oral-cecal transit time was assessed as in Example 1.

[9] = test system: morphine-induced changes in oral-cecal transit time; assay: Example 4: morphine-induced delay of oral-cecal transit time in subjects given opioids non-chronically; assay type: in vivo, human; conditions: 0.45 mg/kg methylnaltrexone plus 0.05 mg/kg morphine
Experimental: Sessions were separated by at least 1 week. Each session lasted approximately 7 hours, and the subjects received one of three injections: (1) placebo plus placebo, (2) placebo plus 0.05 mg/kg morphine, or (3) 0.45 mg/kg methylnaltrexone plus 0.05 mg/kg morphine. Injection I was given at the first session, and the subjects were blinded to the medication. Injections 2 and 3 were given in a random order, and the subjects and observers were blinded to the medication. Injection assignments were prepared by random selection on a computer and were sealed in envelopes.
After completion of the above three injections, we asked six of the subjects, beginning with those who had completed the study last, to return for a fourth injection (0.45 mg/kg methylnaltrexone plus 0.1 mg/kg morphine). This was done to evaluate the effects of methylnaltrexone with a higher does of morphine.
Results of the hydrogen breath test after different injections were analyzed with the use of the Wilcoxon matched-pairs signed-rank test, with p<0.05 considered to be statistically significant.

[10] = test system: chronic methadone subjects; assay: Example 1: side effects, abdominal cramping and central opioid withdrawal; assay type: in vivo, human
Experimental: as §1
To evaluate possible opioid withdrawal with methylnaltrexone, subjects were asked to rate on a 5-point scale from 0 (not at all) to 4 (extremely) an […] checklist Withdrawal Scale (Fraser et al., J Pharmacol Exp. Ther., 133:371-387 (1961); Jasinski, Drug Addiction J., 197-258 (1977); both herein incorporated by reference). Items to be rated were: muscle cramps, flushing, painful joints, yawning, restless, watery eyes, runny nose, chills or gooseflesh, sick to stomach, sneezing, abdominal cramps, irritable, backache, tense and jittery, sweating, depressed/sad, sleepy, shaky (hands), hot or cold flashes, and bothered by noises. The ratings for individual items were summed for a total score for each scale. The total scores were compared before and after methylnaltrexone administration to see if there was a significant difference.

[11] = Example 1: peak plasma methylnaltrexone level (HPLC); assay type: in vivo, human
Experimental: as §3

[12] = Subjects 3 and 4, 0.05-0.15 mg/kg iv twice daily, 4 days
[13] = iv methylnaltrexone, #1 0.45 mg/kg bid, #2 0.45 mg/kg, #3 and #4 0.05-0.15 mg/kg bid, iv methylnaltrexone 0.45 mg/kg
[14] = iv methylnaltrexone, #1 0.45 mg/kg bid, #2 0.45 mg/kg, #3 and #4 0.05-0.15 mg/kg bid, iv methylnaltrexone 0.05-0.15, bid mg/kg
[15] = iv methylnaltrexone, #1 0.45 mg/kg bid, #2 0.45 mg/kg, #3 and #4 0.05-0.15 mg/kg bid, iv methylnaltrexone 0.05-015, bid mg/kg
[16] = iv methylnaltrexone, #1 0.45 mg/kg bid, #2 0.45 mg/kg, #3 and #4 0.05-0.15 mg/kg bid, iv methylnaltrexone 0.45, bid mg/kg

C[N@+]1(CC2CC2)CC[C@]23c4c5ccc(O)c4O[C@H]2C(=O)CC[C@@]3(O)[C@H]1C5 [methylnaltrexone, N-methylnaltrexone bromide]
oral-cecal transit time after methylnaltrexone, at the end of the study ([1]; Subject 1, 0.45 mg/kg iv bid): 90 min | oral-cecal transit time after methylnaltrexone, at the end of the study ([1]; Subject 3, 0.05-0.15 mg/kg iv bid): 60 min | oral-cecal transit time after methylnaltrexone, at the end of the study ([1]; Subject 4, 0.05-0.15 mg/kg iv bid): 60 min | methylnaltrexone dose received (infusion stopped at bowel movement) ([2]; Day 1, iv): 0.09 ± 0.10 mg/kg | methylnaltrexone dose received (infusion stopped at bowel movement) ([2]; Day 2, iv): 0.10 ± 0.10 mg/kg | Bowel movement Satisfaction ([2]; MNTX group, end of study, listed as MNTX): Very satisfied; also recorded: Somewhat satisfied | satisfaction with bowel movement activity at the end of the study ([2]; methylnaltrexone group): all 11 subjects were satisfied | subjects whose stool was soft to loose and in large quantity ([2]; methylnaltrexone group): over 90% | abdominal cramping during and immediately after injection ([3]; all subjects of methylnaltrexone group, iv): mild to moderate abdominal cramping | change in blood pressure or heart rate from baseline ([3]; study drug infusion): No subject demonstrated any clinically significant change | elimination half-life [4]: approximately 2 h | time to initial plasma levels after oral administration [5]: 5 to 10 min | reduction in oral-cecal transit time [6]: 15-20% | Peak plasma level ([7]; Day 1, 11 subjects, range 30-774): 162 ± 237 ng/mL | percentage of intravenous dose excreted unchanged in urine from 0 to 4 hr ([7]; Day 1, mean±SD, range 9.6-39.9): 23.7±10.5% | Peak plasma level ([7]; Day 2, 11 subjects, range 33-658): 166 ± 177 ng/mL | percentage of intravenous dose excreted unchanged in urine from 0 to 4 hr ([7]; Day 2, mean±SD, range 13.2-73.6): 37.6±17.8% | oral-cecal transit time after study drug ([8]; methylnaltrexone group n=11, Day 2, iv, mean±SD, range 30-105, baseline 132.3±36.0): 54.5 ± 19.3 min | average change in oral-cecal transit time from baseline ([8]; methylnaltrexone group n=11, P<0.001 vs placebo group): -77.7 ± 37.2 min | oral-cecal transit time ([9]; 12 subjects, mean±SD, not significant vs baseline 104.6±31.1): 106.3 ± 39.8 min | prevention of morphine-induced changes in oral-cecal transit time ([9]; p<0.01 vs morphine alone): 97% | side effects ([10]; Subject 1, 0.45 mg/kg iv, 7 days of administration): did not experience any significant side effects | abdominal cramping ([10]; Subject 1, 0.45 mg/kg iv, after each injection): mild abdominal cramping | signs of systemic withdrawal (lacrimation, diaphoresis, mydriasis, hallucinations) ([10]; Subject 2, single dose 0.45 mg/kg iv): no signs of systemic withdrawal | abdominal cramping ([10]; Subject 2, single dose 0.45 mg/kg iv over 1 min): severe abdominal cramping | abdominal cramping [10, 12]: mild abdominal cramping | side effects [10, 12]: No significant side effects were observed | Central opioid withdrawal [10, 13]: No | abdominal cramping [10, 13]: Severe | Central opioid withdrawal [10, 14]: No | abdominal cramping [10, 14]: Mild | Central opioid withdrawal [10, 15]: No | abdominal cramping [10, 15]: Mild | Central opioid withdrawal [10, 16]: No | abdominal cramping [10, 16]: Mild | Peak plasma methylnaltrexone level ([11]; Subject 1, 0.45 mg/kg iv): 1.65 µg/mL | Peak plasma methylnaltrexone level ([11]; Subject 2, 0.45 mg/kg iv): 1.10 µg/mL | Peak plasma methylnaltrexone level ([11]; Subject 3, 0.05-0.15 mg/kg iv): 0.25 µg/mL | Peak plasma methylnaltrexone level ([11]; Subject 4, 0.05-0.15 mg/kg iv): 0.53 µg/mL
